Source: patent publication US20090246134A1, “COMPOSITIONS AND METHODS FOR MODULATING GATED ION CHANNELS” (PainCeptor Pharma Corporation, priority 2007, published 2009)
Values joined by “and” are separate entries in the source; they are usually repeats but may differ in a detail not shown here. Equal values may be shown once.

Key:
ASIC1a = molecular target: T1, ASIC1a (Homo sapiens, UniProt P78348); experiment: Calcium-imaging (calcium mobilization, FLIPR) assay in ASIC1a expressing HEK293 cells; assay type: cell-based; design: host or cells: HEK293; conditions: n=3-7, compounds not radiolabelled
T1 sequence (P78348 1-528): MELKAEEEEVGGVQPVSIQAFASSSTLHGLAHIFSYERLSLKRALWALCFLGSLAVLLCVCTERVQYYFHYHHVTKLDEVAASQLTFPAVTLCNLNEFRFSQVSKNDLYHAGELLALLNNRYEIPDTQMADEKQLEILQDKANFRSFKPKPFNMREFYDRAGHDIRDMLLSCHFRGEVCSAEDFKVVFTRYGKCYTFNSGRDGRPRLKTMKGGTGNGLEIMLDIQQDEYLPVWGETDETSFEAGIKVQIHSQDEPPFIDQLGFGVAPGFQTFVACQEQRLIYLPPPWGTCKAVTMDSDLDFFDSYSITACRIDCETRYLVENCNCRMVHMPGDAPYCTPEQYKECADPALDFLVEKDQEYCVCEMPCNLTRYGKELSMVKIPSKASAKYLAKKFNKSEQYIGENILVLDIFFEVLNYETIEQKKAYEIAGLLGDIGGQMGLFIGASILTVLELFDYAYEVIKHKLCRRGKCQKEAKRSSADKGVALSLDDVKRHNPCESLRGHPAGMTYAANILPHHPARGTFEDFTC
Method: ASIC1a expressing HEK293 cells are grown in culture medium (DMEM with 10% FBS), in polystyrene culture flasks ([…]) at 37° C. in a humidified atmosphere of 5% CO2. Confluency of cells should be 80-90% on day of plating. Cells are rinsed with 10 ml of PBS and re-suspended by addition of culture medium and trituration with a 25 ml pipette.
The cells are seeded at a density of approximately 1×10^6 cells/ml (100 μl/well) in black-walled, clear bottom, 96-well plates pre-treated with 10 mg/l poly-D-lysin (75 μl/well for ≧30 min). Plated cells were allowed to proliferate for 24 h before loading with dye.
Fluo-4/AM (1 mg, Molecular Probes) is dissolved in 912 μl DMSO. The Fluo-4/AM stock solution (1 mM) is diluted with culture medium to a final concentration of 2 μM (loading solution).
The culture medium is aspirated from the wells, and 50 μl of the Fluo-4/AM loading solution is added to each well. The cells are incubated at 37° C. for 30 min.
After the loading period, the loading solution is aspirated and the cells are washed twice with 100 μl modified Assay Buffer (145 mM NaCl, 5 mM KCl, 5 mM CaCl2, 1 mM MgCl2, 10 mM HEPES, pH 7.4) to remove extracellular dye. Following the second wash, 100 μl modified Assay Buffer is added to each well and the fluorescence is measured in FLIPR™ or FlexStation™ (Molecular Devices, USA), or any other suitable equipment known to the skilled in the art.
Temperature: Room temperature (20-22° C.)
First addition: 50 μl test solution at a rate of 30 μl/sec and a starting height of […]
Second addition: 50 μl MES solution (20 mM, 5 mM final concentration) at a rate of 35 μl/sec and a starting height of 150 μl.
Reading intervals: pre-incubation—10 sec×7 and 3 sec×3 antagonist phase—3 sec×17 and 10 sec×12
Addition plates (compound test plate and MES plate) are placed on the right and left positions in the FLIPR tray, respectively. Cell plates are placed in the middle position and the ASIC1a program is effectuated. FLIPR will then take the appropriate measurements in accordance with the interval settings above. Fluorescence obtained after stimulation is corrected for the mean basal fluorescence (in modified Assay Buffer).
The MES-induced peak calcium response, in the presence of test substance, is expressed relatively to the MES response alone. Test substances that block the MES-induced calcium response are re-tested in triplicates. Confirmed hits are picked for further characterization by performing full dose-response curves to determine potency of each hit compound as represented by the IC50 values (i.e., the concentration of the test substance which inhibits 50% of the MES-induced calcium response).
It is noted that the compounds below are not radiolabelled.

[1] = Metabolite identification (LC-MS), sample 1, source of sample not given; assay type: in vitro ADME
From the text: (§1) The objective of this study is to analyze in vitro samples of Compound A and Compound B from rat and human microsomes using liquid chromatography quadrupole ion trap mass spectrometry and identify the nature of the metabolite(s) for each species.
(§2) The HPLC system consisted of a Thermo Surveror autosampler and a Thermo Surveyor MS pump (San Jose, Calif., USA). The LC-MS/MS system used was a Thermo LCQ Advantage (San Jose, Calif., USA). Data was acquired on a Dell Optiplex desktop computer (Round Rock, Tex., USA) equipped with operation system Windows XP professional. Data acquisition and analysis were performed using XCalibur 1.4 (San Jose, Calif., USA).
(§3) After the incubation period of the liver microsomes, the reaction was stopped with the addition of acetonitrile and frozen for transport. Before analysis, the samples were thawed at room temperature. They were vortexed vigorously and centrifuged at approximately 12000 g for 10 minutes. The supernatant was transferred into an injection vial for analysis.
(§4) A gradient mobile phase was used with a Thermo Phenyl 100×2 mm column with particle size of 5 μm. The initial mobile phase condition consisted of methanol and 0.1% formic acid solution at a ratio of 20:80, respectively. From 0 to 2 minutes, the ratio was maintained at 20:80. From 2 to 10 minutes, a linear gradient was applied and a ratio of 90:10 was maintained from 10 to 12 minutes. […] The flow rate was fixed at 0.25 mL/min.
(§5) The mass spectrometer was interfaced with the HPLC system using a pneumatic assisted electrospray ion source. The sheath gas was set to 15 units and the ESI electrode was set to 4000 V (positive mode). The capillary temperature was set at 300° C., and the capillary voltage was set to 13 V. The mass spectrometer was operating in full scan MS mode using one segment analysis (200-800).

[2] = Liver microsomes stability and metabolite identification (LC-MS), rat; assay type: in vitro ADME
From the text: as §1, §2, §3, §4, §5

[3] = Liver microsomes stability and metabolite identification (LC-MS), human; assay type: in vitro ADME
From the text: as §1, §2, §3, §4, §5

[4] = rat microsomes 60 min (samples 5-7)
[5] = human microsomes 60 min (samples 14-16)

- IC50 (ASIC1a): 0.7 µM
- Compound A metabolite identification: m/z 342 [1]: no
- Compound A metabolite identification: m/z 356 (parent) [1]: Yes
- Compound A metabolite identification: m/z 372 [1]: no
- Compound A metabolite identification: m/z 412 [1]: no
- Total % metabolites ([2]; % peak area relative to parent at T0, 60 min incubation, rat microsomes): 32.76%
- Compound A metabolite identification: m/z 342 [2, 4]: Yes
- Compound A metabolite identification: m/z 356 (parent) [2, 4]: Yes
- Compound A metabolite identification: m/z 372 [2, 4]: Yes
- Compound A metabolite identification: m/z 412 [2, 4]: trace
- Calc. Conc. ([2]; rat microsomes, time 0 min): 3.61 µM and 3.80 µM
- Calc. Conc. ([2]; rat microsomes, time 60 min): 2.49 µM and 2.67 µM and 2.40 µM
- Total % metabolites ([3]; % peak area relative to parent at T0, 60 min incubation, human microsomes): 8.08%
- Compound A metabolite identification: m/z 342 [3, 5]: Yes
- Compound A metabolite identification: m/z 356 (parent) [3, 5]: Yes
- Compound A metabolite identification: m/z 372 [3, 5]: Yes
- Compound A metabolite identification: m/z 412 [3, 5]: no
- Calc. Conc. ([3]; human microsomes, time 0 min): 4.91 µM and 6.54 µM
- Calc. Conc. ([3]; human microsomes, time 60 min): 3.84 µM and 3.83 µM and 3.77 µM
Compound: COc1ccc(F)cc1-c1cc2c(c3c1CCN(C)C3)NC(=O)C2=NO [Compound A, 5-(5-fluoro-2-methoxyphenyl)-6,7,8,9-tetrahydro-3-(hydroxyimino)-8-methyl-1H-pyrrolo[3,2-h]isoquinoline-2(3H)-one]
